This passage reports ring closure, isolated yield and IC50 results from US20250066386A1, “INHIBITORS OF KRAS” (BIOMEA FUSION, INC., priority 2022, published 2025).

The conditions of data set [1]: 18-membered ring, DCM, 25.0 °C.
Data set [2] concerns human KRAS G12C mutated cell line MIA PaCa-2. Description: KRas G12C in vitro inhibitory activity: cell proliferation, CellTiter-Glo. Type of data set: cell-based.
Description: (§1) The present example evaluates the ability of compounds provided herein to inhibit proliferation of KRAS mutant cells.
The inhibitory effect on cell proliferation was investigated in the human KRAS G12C mutated cell line MIA PaCa-2 (Yunis et al., 1977, Int. J. Cancer 19(1):128-135; ATCC catalog no. CRL-1420). Cells were maintained in RPMI-1640 medium (ThermoFisher catalog no. 61870036) supplemented with 10% of Heat Inactivated FBS (ThermoFisher catalog no. A31605) and 1% Pen-Strep (ThermoFisher catalog no. 10378016) and cultured at 37° C. in a humidified incubator with 5% CO2. Cells were grown by adhering to culture flasks, and maintained at 70%-80% confluency.
(§2) ATP is present in all metabolically active cells and is considered as a marker for viable cells. The number of metabolically active live cells in culture was determined using the CellTiter-Glo kit (Promega catalog no. G7572), an ATP monitoring system based on the production of luminescence by the reaction of ATP with added UltraGlo® recombinant luciferase (Kawano et al., 2016, PLOS One, 8; 11(7):e0158888), according to the supplier's experimental recommendations. The cell proliferation assay was based on a 96 well plate format.
Test compounds were dissolved at 10 mM in DMSO (Sigma catalog no. D8418; purity >99.9%) and stored at −20° C. Eight concentrations of test compound were assessed in duplicate in an individual test occasion in parallel in the selected cell lines. MRTX-849 and AMG-510 were used as reference compounds and tested in duplicate at eight concentrations. 100% of proliferation is represented by the untreated cells (0.2% DMSO).
On the day of the experiment (TO), cells were detached with TrypLE (ThermoFisher catalog no. 12604054), quantified using the cell viability analyser NucleoCounter (Chemometec NC-200) and resuspended in fresh medium at a cell density of about 5000 cells per 200 μL medium. 200 μL of cell suspension were added to each well of a 96 well plate.
Two hours after seeding cells, compounds were added at desired concentrations using a D300e compound dispenser (Life Sciences Tecan D300) with shaking after each compound addition. Assay plates were incubated at 37° C. in a humidified incubator with 5% CO2.
(§3) To measure 3 day inhibition of cell proliferation on day 3 (T3), assay plates were equilibrated to room temperature for approximately 15 min, and the Promega CellTiterGlo® reagent was added at 40 μL/well. Contents were mixed for 5 min on an orbital shaker to induce cell lysis, and then incubated at room temperature for an additional 10 min in the dark to stabilize the luminescent signal. Luminescence was read using a GloMax GM300 plate reader (Promega) using the luminescence for 96 well plate standard protocol.
as §3, with “measure 7” for “measure 3”, “(T3), 150 μL of growth media was removed from each well of the assay plates and replaced with 150 uL fresh growth media, and fresh compounds added using a D300e compound dispenser (Life Sciences Tecan D300) at desired concentrations with shaking between each compound addition. Assay plates were incubated at 37° C. in a humidified incubator with 5% CO2. On day 7 (T7)” for “(T3),”
Data was expressed as % of inhibition compared to the 0.2% DMSO negative no drug control, and is calculated as follows: % inhibition=100−[(RLU sample)×100/(RLU average controls*)], where * indicates the average for 0.2% DMSO.
(§4) Results were analyzed by GraphPad (Prism) and IC50 values were calculated by non-linear regression using four parameter-logistic equation. […]
In general terms: ATP-based viability assays read luminescence as a measure of living cells.

The subject of data set [3] is human KRAS G12D mutated cell line SUIT-2. In words: KRas G12D in vitro inhibitory activity: cell proliferation, CellTiter-Glo. Particulars: 7 day inhibition of cell proliferation, medium and compound renewed on day 3, CellTiter-Glo luminescence. In kind it is cell-based.
Description: as §1
The proliferation inhibitory effect was investigated in the human KRAS G12D mutated cell line SUIT-2 (Iwamura et al., 1987, Jpn. J. Cancer Res. 78.54-62; JCRB catalog no. JCRB1094). Cells were maintained in RPMI-1640 medium (ThermoFisher catalog no. 61870036) supplemented with 10% of Heat Inactivated FBS (ThermoFisher catalog no. A31605) and 1% Pen-Strep (ThermoFisher catalog no. 10378016) and cultured at 37° C. in a humidified incubator with 5% CO2. Cells were grown by adhering to culture flasks, and maintained at 70%-80% confluency.
as §2
Test compounds were dissolved at 10 mM in DMSO (Sigma catalog no. D8418; purity >99.9%) and stored at −20° C. Eight concentrations of test compound were assessed in duplicate in an individual test occasion in parallel in the selected cell lines. MRTX-849 and AMG-510 were used as reference compounds and tested in duplicate at eight concentrations. 100% of proliferation is represented by the untreated cells (0.1% DMSO).
On the day of the experiment (TO), cells were detached with TrypLE (ThermoFisher catalog no. 12604054) quantified using the cell viability analyzer NucleoCounter (Chemometec NC-200) and resuspended in fresh medium at a cell density of about 1000 cells per 200 μL medium. 200 μL of cell suspension were added to each well of a 96 well plate.
Two 2 hours after seeding cells, compounds were added at desired concentrations using a D300e compound dispenser (Life Sciences Tecan D300) with shaking after each compound addition. Assay plates were incubated at 37° C. in a humidified incubator with 5% CO2.
On day 3 (T3), 150 μL of growth media was removed from each well of the assay plates and replaced with 150 uL fresh growth media, and fresh compounds added using a D300e compound dispenser (Life Sciences Tecan D300) at desired concentrations with shaking between each compound addition. […] Luminescence was read using a GloMax GM300 plate reader (Promega) using the luminescence for 96 well plate standard protocol. […]
as §4

[4] abbreviates: Homo sapiens, MIA PaCa-2, 72 h, 3 day inhibition of cell proliferation, CellTiter-Glo luminescence, read-out: MIA PaCa-2 Day 3 IC50.
[5] abbreviates: Homo sapiens, MIA PaCa-2, 7 day inhibition of cell proliferation, medium and compound renewed on day 3, CellTiter-Glo luminescence, read-out: MIA PaCa-2 Day 7 IC50.

What is called IC50 is the concentration that gives 50% inhibition.

Where two headings read alike, the source gives them in different places. Where only a bound is given, the exact number is not on record here.

With `CCn1c(-c2cccnc2[C@H](C)OC)c2c3cc(ccc31)-c1cccc(c1)C[C@H](NC(=O)OC(C)(C)C)C(=O)N1CC[C@@H](C1)C(=O)OCC(C)(C)C2`, the ring closure, isolated yield in data set [1] (from CCn1c(-c2cccnc2[C@H](C)OC)c(CC(C)(C)CO)c2cc(-c3cccc(C[C@H](NC(=O)OC(C)(C)C)C(=O)N4CC[C@H](C(=O)O)C4)c3)ccc21, ester bond, EDC/HOBT/DIPEA, 47.2 mM, 16.0 h, 2 steps) was determined as 60%.
Compound `CCn1c(-c2cccnc2[C@H](C)OC)c2c3cc(ccc31)-c1cccc(c1)C[C@H](NC(=O)OCc1ccccc1)C(=O)N1CCC[C@@H](CC(=O)OC(C)(C)C2)C1` returned a ring closure, isolated yield in data set [1] (from CCn1c(-c2cccnc2[C@H](C)OC)c(CC(C)(C)OC(=O)C[C@@H]2CCCNC2)c2cc(-c3cccc(C[C@H](NC(=O)OCc4ccccc4)C(=O)O)c3)ccc21, amide bond, T3P/DIPEA, 32.3 mM, 1.0 h, 3 steps) of 44%.
`CCn1c(-c2cccnc2[C@H](C)OC)c2c3cc(ccc31)-c1cccc(c1)C[C@H](NC(=O)[C@H](C(C)C)N(C)C(=O)[C@H]1CCN(C(=O)C#CCN3CCOCC3)C1)C(=O)N1CCC[C@H](C1)C(=O)OCC(C)(C)C2` (atropisomer, axis not shown) [Compound 1, (3S)—N-((2S)-1-(((6^3R,4S)-1^1-ethyl-1^2-(2-((S)-1-methoxyethyl)pyridin-3-yl)-10,10-dimethyl-5,7-dioxo-1^1H-8-oxa-1(5,3)-indola-6(1,3)-piperidina-2(1,3)-benzenacycloundecaphane-4-yl)amino)-3-methyl-1-oxobutan-2-yl)-N-methyl-1-(4-morpholinobut-2-ynoyl)pyrrolidine-3-carboxamide]: the IC50 in data set [2] (7 day inhibition of cell proliferation, medium and compound renewed on day 3, CellTiter-Glo luminescence, read-out: MIA PaCa-2 Day 7 IC50) was 10 to 100 nM; in data set [3] it was greater than 100 nM.
As for `CCn1c(-c2cccnc2[C@H](C)OC)c2c3cc(ccc31)-c1cccc(c1)C[C@H](NC(=O)[C@H](C(C)C)N(C)C(=O)[C@H]1CCN(CC#CC(=O)N(C)C)C1)C(=O)N1CCC[C@H](N1)C(=O)OCC(C)(C)C2` (atropisomer, axis not shown) [Compound 3, (3S)-1-(4-(dimethylamino)-4-oxobut-2-yn-1-yl)-N-((2S)-1-(((6^3S,4S)-1^1-ethyl-1^2-(2-((S)-1-methoxyethyl)pyridin-3-yl)-10,10-dimethyl-5,7-dioxo-6^1,6^2,6^3,6^4,6^5,6^6-hexahydro-1^1H-8-oxa-1(5,3)-indola-6(1,3)-pyridazina-2(1,3)-benzenacycloundecaphane-4-yl)amino)-3-methyl-1-oxobutan-2-yl)-N-methylpyrrolidine-3-carboxamide], the IC50 in data set [2] (setting [4]) is 1 to 10 nM; in data set [2] (setting [5]) it was 1 to 10 nM; in data set [3], greater than 100 nM.
Consider `CCn1c(-c2cccnc2[C@H](C)OC)c2c3cc(ccc31)-c1cccc(c1)C[C@H](NC(=O)[C@H](C(C)C)N(C)C(=O)[C@H]1CCN(C(=O)C#CC(=O)N(C)C)C1)C(=O)N1CCC[C@H](N1)C(=O)OCC(C)(C)C2` (atropisomer, axis not shown) [Compound 4], for which the IC50 in data set [2] (setting [5]) and in data set [3] was greater than 100 nM each time.
Turning to `CCn1c(-c2cccnc2[C@H](C)OC)c2c3cc(ccc31)-c1cccc(c1)C[C@H](NC(=O)[C@H](C(C)C)N(C)C(=O)[C@H]1CCN(C(C)C#CC(=O)N(C)C)C1)C(=O)N1CCC[C@H](N1)C(=O)OCC(C)(C)C2` (stereo partly drawn) [Compound 5], the values for the IC50 in data set [2] (setting [4]), in data set [2] (setting [5]) and in data set [3] were 1 to 10 nM, 10 to 100 nM and greater than 100 nM, respectively.
